pIC50: −log10 of the molar value. Converted amounts (≈) assume the structure as drawn. Values belong to the molecule of their own block, whether it stands above or below them.
Legend:
[1] = molecular target: T1, β-glucosidase (β-GLU) from almonds; assay: 4-nitrophenol release, absorbance […] nm; format: biochemical, Prunus dulcis; settings: 4-nitrophenyl beta-D-glucopyranoside, 0.1 M phosphate pH 7.0, 37 °C, 20 min
T1 construct: gene beta-glucosidase; commercial enzyme from almonds (Sigma-Aldrich)

[2] = molecular target: T2, AChE from Electrophorus electricus (Electrophorus electricus, UniProt O42275); assay: biochemical
[3] = system: T3, α-glucosidase (α-GLU) extracted from Saccharomyces cerevisiae; assay: 4-nitrophenol release, absorbance […] nm; format: biochemical; settings: 4-nitrophenyl alpha-D-glucopyranoside (5 mM solution), 0.1 M phosphate pH 7.0, 37 °C, 20 min; unreliable (far above the tested range, extrapolated)
T3 construct: gene MAL12; commercial yeast enzyme (Sigma-Aldrich)

[4] = molecular target: T2, AChE from Electrophorus electricus; assay: Ellman assay, absorbance […] nm; format: biochemical; settings: acetylthiocholine iodide substrate with DTNB, phosphate buffer, 5 min preincubation; unreliable (above the tested range, extrapolated)
[5] = molecular target: T3, α-glucosidase (α-GLU) extracted from Saccharomyces cerevisiae; assay: 4-nitrophenol release, absorbance […] nm; format: biochemical; settings: 4-nitrophenyl alpha-D-glucopyranoside (5 mM solution), 0.1 M phosphate pH 7.0, 37 °C, 20 min
[6] = molecular target: T2, AChE from Electrophorus electricus; assay: Ellman assay, absorbance […] nm; format: biochemical; settings: acetylthiocholine iodide substrate with DTNB, phosphate buffer; no significant inhibition

T2 sequence (O42275 24-633): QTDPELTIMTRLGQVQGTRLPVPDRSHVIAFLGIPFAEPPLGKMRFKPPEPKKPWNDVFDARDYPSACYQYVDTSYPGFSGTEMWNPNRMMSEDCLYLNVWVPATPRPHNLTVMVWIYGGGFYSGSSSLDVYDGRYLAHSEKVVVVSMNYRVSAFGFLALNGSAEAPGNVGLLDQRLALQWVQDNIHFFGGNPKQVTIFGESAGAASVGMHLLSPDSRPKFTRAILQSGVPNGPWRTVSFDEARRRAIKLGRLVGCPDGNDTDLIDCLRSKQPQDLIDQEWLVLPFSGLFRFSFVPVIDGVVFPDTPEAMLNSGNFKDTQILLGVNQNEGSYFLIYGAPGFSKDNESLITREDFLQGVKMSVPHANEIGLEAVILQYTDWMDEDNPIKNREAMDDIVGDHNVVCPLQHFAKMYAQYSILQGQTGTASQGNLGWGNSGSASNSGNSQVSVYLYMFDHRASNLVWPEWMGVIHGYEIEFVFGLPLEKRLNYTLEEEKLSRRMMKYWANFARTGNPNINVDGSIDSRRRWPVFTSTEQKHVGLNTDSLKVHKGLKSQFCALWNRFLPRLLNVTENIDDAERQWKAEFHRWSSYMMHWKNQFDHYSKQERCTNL

- β-GLU / IC50 [1]: 36 ± 1 µg/mL
Compound: OC[C@H]1NC[C@H](O)[C@@H](O)[C@@H]1O [1-DNJ]

Compound: Cc1ccc(C(C)C)cc1O [Carvacrol]
- pIC50 [2]: 3.75
- α-GLU / IC50 [3]: 109340 ± 23120 µg/mL

Compound: Cc1ccc(C(C)C)c(O)c1 [Thymol]
- IC50 [4]: 2531 ± 515 µg/mL (≈ 16.8 mM)
- α-GLU / IC50 [5]: 304 ± 25 µg/mL

Compound: CC1=CCC(C(C)C)=CC1 [γ-terpinene]
- Ellman assay, absorbance 405 nm [6]: did not show significant AChE inhibition under our experimental conditions

— paper PMC12526278, “Origanum vulgare subsp. virens (Hoffmanns. & Link) Bonnier & Layens Essential Oils: Chemotypes and Bioactivity as Antifungal, Antifeeding and Enzyme Inhibitors” (Plants, 2025)
